In ChEMBL document CHEMBL5113480, “Discovery of novel biphenyl-substituted pyridone derivatives as potent non-nucleoside reverse transcriptase inhibitors with promising oral bioavailability” (Eur J Med Chem, 2022):

Tests used:
[1] = tested on: Human immunodeficiency virus 1; experiment: Antiviral activity against HIV-1 ROD infected in human MT4 cells assessed as reduction in viral replication by MTT assay; assay type: functional, organism-based
[2] = tested on: Human immunodeficiency virus 1; experiment: Antiviral activity against HIV-1 Y181C mutant infected in human MT4 cells assessed as reduction in viral replication by MTT assay; assay type: functional, organism-based; details: Human immunodeficiency virus 1, Y181C mutant
[3] = tested on: Human immunodeficiency virus 1; experiment: Antiviral activity against HIV-1 F227L-V106A mutant infected in human MT4 cells assessed as reduction in viral replication by MTT assay; assay type: functional, organism-based; details: Human immunodeficiency virus 1, F227L-V106A mutant
[4] = Cytotoxicity against human MT4 cells assessed as reduction on cell growth by MTT assay; assay type: toxicity, cell-based
[5] = tested on: Human immunodeficiency virus 1; experiment: Antiviral activity against HIV-1 K103N mutant infected in human MT4 cells assessed as reduction in viral replication by MTT assay; assay type: functional, organism-based; details: Human immunodeficiency virus 1, K103N mutant
[6] = tested on: Human immunodeficiency virus 1; experiment: Antiviral activity against HIV-1 L100I mutant infected in human MT4 cells assessed as reduction in viral replication by MTT assay; assay type: functional, organism-based; details: Human immunodeficiency virus 1, L100I mutant
[7] = tested on: Human immunodeficiency virus 1; experiment: Antiviral activity against HIV-1 IIIB infected in human MT4 cells assessed as reduction in viral replication by MTT assay; assay type: functional, organism-based; details: Human immunodeficiency virus 1, IIIB
[8] = tested on: Human immunodeficiency virus 1; experiment: Antiviral activity against HIV-1 Y188L mutant infected in human MT4 cells assessed as reduction in viral replication by MTT assay; assay type: functional, organism-based; details: Human immunodeficiency virus 1, Y188L mutant
[9] = tested on: Human immunodeficiency virus 1; experiment: Antiviral activity against HIV-1 K103N-Y181C mutant infected in human MT4 cells assessed as reduction in viral replication by MTT assay; assay type: functional, organism-based; details: Human immunodeficiency virus 1, K103N-Y181C mutant
[10] = Selectivity index, ratio of CC50 for cytotoxicity against human MT4 cells to EC50 of Anti-HIV activity against HIV-1 IIIB infected in human MT4 cells; assay type: toxicity, cell-based; details: read-out: Ratio CC50/EC50
[11] = molecular target: Human immunodeficiency virus type 1 reverse transcriptase (Human immunodeficiency virus 1, UniProt Q72547); experiment: Inhibition of wild type HIV-1 Reverse transcriptase
[12] = tested on: Human immunodeficiency virus 1; experiment: Antiviral activity against HIV-1 E138K mutant infected in human MT4 cells assessed as reduction in viral replication by MTT assay; assay type: functional, organism-based; details: Human immunodeficiency virus 1, E138K mutant

SMILES	EC50 [1] [µM]	EC50 [2] [µM]	EC50 [3] [µM]	CC50 [4] [µM]	EC50 [5] [µM]	EC50 [6] [µM]	EC50 [7] [µM]	EC50 [8] [µM]	EC50 [9] [µM]	selectivity ratio [10]	IC50 [11] [µM]	EC50 [12] [µM]
Cn1c(Cn2ccc(C(F)(F)F)c(Oc3ccc(-c4ccc(F)c(C#N)c4)cc3F)c2=O)n[nH]c1=O	> 35	39.6	> 35	65.5	7.27	7.27	5.12	44.8	> 35	12.8	7	7.72
Cn1c(Cn2ccc(C(F)(F)F)c(Oc3ccc(-c4ccc(C#N)cc4)cc3)c2=O)n[nH]c1=O	> 35	38.8	> 35	74.3	26.9	7.68	6.23	> 35	> 35	11.9	15.9	23.7
Cn1c(Cn2ccc(C(F)(F)F)c(Oc3ccc(-c4cccc(F)c4)c(F)c3)c2=O)n[nH]c1=O	> 35	28.6	> 35	51.5	4.39	1.52	1.42	> 35	> 35	36.4	2.33	2.16
Cc1cc(-c2ccc(F)cc2)ccc1Oc1c(C(F)(F)F)ccn(Cc2n[nH]c(=O)n2C)c1=O	> 35	> 35	> 35	26	3.36	3.26	5.05	> 35	> 35	5.15	5.4	3.94
Cn1c(Cn2ccc(C(F)(F)F)c(Oc3ccc(-c4cc(F)cc(C#N)c4)cc3F)c2=O)n[nH]c1=O	> 35	38.8	38.9	69.2	8.33	3.72	3.36	41.5	> 35	20.6	5.98	4.02
Cc1cc(Oc2c(C(F)(F)F)ccn(Cc3n[nH]c(=O)n3C)c2=O)ccc1-c1cc(F)cc(C#N)c1	> 35	> 35	> 35	45.6	8.02	3.84	1.55	> 35	> 35	29.4	3.67	2.54
Cc1cc(Oc2c(C(F)(F)F)ccn(Cc3n[nH]c(=O)n3C)c2=O)ccc1-c1ccc(C#N)cc1	> 35	8.83	> 35	52.1	8.35	2.33	2.17	> 35	> 35	24	4.2	3.68
Cn1c(Cn2ccc(C(F)(F)F)c(Oc3cc(C#N)cc(-c4cccc(C#N)c4)c3)c2=O)n[nH]c1=O	> 35	0.12	> 35	101	0.026	0.016	0.023	0.36	0.26	4500	0.21	0.026
Cn1c(Cn2ccc(C(F)(F)F)c(Oc3ccc(-c4cccc(C#N)c4)c(F)c3)c2=O)n[nH]c1=O	> 35	4.84	> 35	104	1.22	0.7	0.25	46.3	30.6	424	0.45	0.8
Cn1c(Cn2ccc(C(F)(F)F)c(Oc3c(F)cc(-c4ccc(C#N)cc4)cc3F)c2=O)n[nH]c1=O	> 35	4.97	> 35	21.2	1.14	1.69	0.72	> 35	> 35	29.5	3.13	1.46
Cc1cc(-c2cccc(F)c2)ccc1Oc1c(C(F)(F)F)ccn(Cc2n[nH]c(=O)n2C)c1=O	> 35	> 35	> 35	26.7	2.59	3.64	5.14	> 35	> 35	5.2	5.44	3.99
Cn1c(Cn2ccc(C(F)(F)F)c(Oc3ccc(-c4ccc(F)c(C#N)c4)c(F)c3)c2=O)n[nH]c1=O	> 35	22.3	42.4	69.5	2.14	1.75	0.89	41.4	44.8	78.5	1.12	1.51
Cn1c(Cn2ccc(C(F)(F)F)c(Oc3ccc(-c4cc(F)cc(C#N)c4)cc3Cl)c2=O)n[nH]c1=O	> 35	7.14	> 35	19.3	3.29	2.41	3.38	> 35	> 35	5.71	4.37	3.29
Cc1cc(Oc2c(C(F)(F)F)ccn(Cc3n[nH]c(=O)n3C)c2=O)ccc1-c1cccc(C#N)c1	> 35	6.38	> 35	82.7	2.09	1.34	0.7	38.8	33	118	1.53	1.01
Cn1c(Cn2ccc(C(F)(F)F)c(Oc3c(F)cc(-c4cccc(F)c4)cc3F)c2=O)n[nH]c1=O	> 35	> 35	> 35	25.4	6.34	4.15	5.74	> 35	> 35	4.42	26.3	6.81
Cn1c(Cn2ccc(C(F)(F)F)c(Oc3ccc(-c4cc(F)cc(C#N)c4)c(F)c3)c2=O)n[nH]c1=O	> 35	12.1	> 35	105	2.47	1.86	0.74	39.8	36.6	143	1.02	1.34
Cc1cc(-c2ccc(C#N)cc2)ccc1Oc1c(C(F)(F)F)ccn(Cc2n[nH]c(=O)n2C)c1=O	> 35	6.26	> 35	33.4	1.65	1.63	1.54	> 35	6.55	21.7	4.8	2.42
Cc1cc(-c2cccc(C#N)c2)ccc1Oc1c(C(F)(F)F)ccn(Cc2n[nH]c(=O)n2C)c1=O	> 35	4.75	> 35	27.2	1.04	1.38	1.35	> 35	6.69	20.2	4.73	1.81
Cc1ccccc1-c1ccc(Oc2c(C(F)(F)F)ccn(Cc3n[nH]c(=O)n3C)c2=O)cc1F	> 35	5.54	> 35	33.8	7.78	5.3	3.93	104	115	8.6	3.21	4.51
Cn1c(Cn2ccc(C(F)(F)F)c(Oc3ccc(-c4cccc(C#N)c4)cc3Cl)c2=O)n[nH]c1=O	> 35	> 35	> 35	22.9	2.92	2.35	4.07	> 35	> 35	5.62	7.21	3.56
Cn1c(Cn2ccc(C(F)(F)F)c(Oc3cc(C#N)cc(-c4cccc(F)c4)c3)c2=O)n[nH]c1=O	> 35	0.054	> 35	19.1	0.012	0.021	0.015	0.83	0.31	1270	0.056	0.021
Cn1c(Cn2ccc(C(F)(F)F)c(Oc3ccc(-c4cccc(C#N)c4)c(F)c3F)c2=O)n[nH]c1=O	> 35	8.36	> 35	48.8	2.87	1.59	0.96	> 35	> 35	50.8	1.31	1.6
